Source: patent publication US20100279944A1, “SUPPRESSION AND TREATMENT OF NEUROPATHIC PAIN” (priority 2006, published 2010)
Where a SMILES comes first, the peptide text is derived from it. [ ]: non-standard residue; d: D form.

Columns and labels:
[1] = Recovery, side effects and body weight of SCI rats after peptide treatment; type: in vivo, rat; settings: 200 μg/kg i.v., six bolus doses after SCI
Experimental: Seventeen individually housed male Wistar rats (Charles River, St. Constant, Quebec, 250-320 g) were used to assess mechanical allodynia and hind-limb locomotion. Males were used in these studies to avoid the confounding variable of hormonal cycles on the assessments of neuropathic pain. All protocols were carried out in accordance with the guidelines set forth by the Canadian Guide to Care and Use of Experimental Animals. All experiments conformed to international guidelines on the ethical use of animals and minimized the number of animals used and their suffering. All rats received pre-operative medication and halothane anesthesia for surgical interventions to accomplish clip compression spinal cord injury (SCI), as described previously (Gris et al., (2004), J. Neurosci., v. 24, pp. 4043-4051; Weaver et al., (2001), J. Neurotrauma, v. 18, pp. 1107-1119). A dorsal laminectomy was performed to expose the 12th thoracic (T12) spinal cord segment. The cord was injured by clip compression for 60 sec without disrupting the dura or adjacent dorsal roots. A modified aneurysm clip (Toronto Western Research Institute, University of Toronto, Toronto, Ontario, Canada) calibrated at 35 g was used at the T12 segment to produce a moderate injury. The rats received postoperative care as described previously (Gris, supra). […]

[2] = Mathison et al., 1997; cited from earlier work

Compound	side effects of treatment [1]	lowest dose showing biological effects [2] [μg/kg]
N[C@H](Cc1ccccc1)C(=O)N[C@H](CC(=O)O)C(=O)NCC(=O)O [fdG, D-phenylalanine-D-aspartic acid-Glycine] (H-[dF]-[dD]-Gly-OH)	No overt side effects	–
SGP-T: submandibular gland peptide T; amino acid sequence TDIFEGG	–	1
